Assay results as given in publication PMC12320245 (International Journal of Biological Sciences, 2025).

Legend:
[1] = system: PDE4 in primary hippocampal neurons; experiment: Scratch injury: PDE4 expression (immunocytochemistry and Western blot); type: cell-based, rat; conditions: scratch-AMX vs scratch-vehicle, 24 hours after scratch
Experimental: (§1) Primary hippocampal neurons were obtained from embryonic day 18 (E18) Sprague-Dawley rat embryos. Pregnant rats were anesthetized using 2-3% isoflurane in a gas mixture of 70% nitrous oxide and 30% oxygen. Following euthanasia, the hippocampi were carefully dissected, minced, and enzymatically dissociated using TrypLE Express (Gibco, NY, USA) for 10 minutes at 37°C. The tissue was further mechanically dissociated using fire-polished glass pipettes, and the resulting cell suspension was filtered through a 70 μm cell strainer to remove debris. Neurons were seeded at a density of 3 × 10^5 cells per well in 24-well plates pre-coated with poly-L-lysine (Sigma-Aldrich, Saint Louis, MO, USA). Cells were maintained in neurobasal medium supplemented with B-27 (Thermo Fisher Scientific, Waltham, MA, USA), GlutaMAX (Gibco), and penicillin-streptomycin. […]
(§2) A scratch injury model was used to mimic TBI in vitro. […] After the treatment period, neuronal damage and recovery were assessed using appropriate evaluation methods.
Twenty-four hours after the scratch injury, cells were lysed using RIPA buffer (IBS-BR002, iNtRON, Republic of Korea) supplemented with protease and phosphatase inhibitors (Sigma, USA). […] Protein detection was performed using a chemiluminescence bioimaging device (Amersham Imager 680, Cytiva, MA, USA), and the results were analyzed to determine protein expression levels. […]

BV2 cells = conditions: NF-κB/STAT3 downregulation; cited from earlier work
TBI rats = experiment: Controlled cortical impact TBI: modified neurological severity score; type: in vivo, rat
Experimental: This study used male Sprague-Dawley rats weighing 300-350 g and aged 8 weeks, obtained from DBL Co. (Chungcheongbuk-do, Republic of Korea). The rats were housed in a controlled environment with a temperature of 20 ± 2 °C, a relative humidity of 55 ± 5%, and a 12-hour light/dark cycle. They were provided ad libitum access to food and water. To minimize stress associated with transportation, animals underwent a one-week acclimatization period before the start of the experiments. All experimental procedures were conducted in compliance with the guidelines of the National Institutes of Health for the care and use of laboratory animals and were approved by the Hallym University Institutional Animal Care and Use Committee (protocol # Hallym 2022-23, approved on July 15, 2022). This manuscript follows the principles outlined in the Animal research: reporting in vivo experiments (ARRIVE) guidelines.
A controlled cortical impact (CCI) model was used to induce TBI in rats. Animals were anesthetized with 1-1.5% isoflurane in a 30:70 oxygen-to-nitrous oxide mixture and securely positioned in a stereotaxic frame. […]
The mNSS provides a quantitative measure of neurological function, with scores ranging from 0 (normal function) to 18 (severe dysfunction). The test evaluates multiple parameters to comprehensively assess neurological deficits: 1) Tail Suspension (3 points)—The rat's ability to be lifted by its tail is assessed, with higher scores indicating increased difficulty or inability to lift. 2) Balance and Posture (3 points)—The rat's ability to maintain proper posture and balance when placed on a flat surface is observed and scored. 3) Sensory Function ([…])—Sensory responses, including reactions to tactile or pain stimuli, are evaluated. 4) Beam Balance Test (6 points)—The rat's ability to walk on a narrow beam is assessed. […] 5) Reflexes and Abnormal Movements (4 points)—The presence or absence of reflexes, as well as abnormal behaviors or movements, are recorded and scored.

[2] = system: LAMP2 in primary hippocampal neurons; experiment: Scratch injury: LAMP2 Western blot; type: cell-based, rat; conditions: scratch-AMX vs scratch-vehicle, 24 hours after scratch
Experimental: as §1, §2
Twenty-four hours after the scratch injury, cells were lysed using RIPA buffer (IBS-BR002, iNtRON, Republic of Korea) supplemented with protease and phosphatase inhibitors (Sigma, USA). […] Protein detection was performed using a chemiluminescence bioimaging device (Amersham Imager 680, Cytiva, MA, USA), and the results were analyzed to determine protein expression levels.

[3] = system: activated microglia and astrocytes (Iba1, GFAP); conditions: post-seizure AMX treatment; cited from earlier work

## CC(C)c1ccc2oc3nc(N)c(C(=O)O)cc3c(=O)c2c1 [AMX, amlexanox]
[1]
  PDE4 levels: significantly reduced
BV2 cells
  LPS-induced microglial activation: attenuated LPS-induced microglial activation
TBI rats; TBI-AMX vs TBI-vehicle
  beam balance test of mNSS (balance control, videos): performed better
TBI rats; between day 1 and subsequent time points, vs vehicle
  ΔmNSS: greater improvements in ΔmNSS
TBI rats; days 1 to 7 after TBI, daily AMX 100 mg/kg i.p., vs vehicle
  mNSS scores: lower mNSS scores
[2]
  LAMP2 expression: significantly preserved
[3]
  activated microglia and astrocytes (Iba1, GFAP): markedly decreased activated microglia and astrocytes
